Laboratory results published in patent US4794116A, “Anti-allergic esters, acetal ethers, thioethers and nitrogen substituted derivatives of bicyclic compounds” (Schering Corporation, priority 1986, dated 1988).

How the values were obtained:
[1] = tested on: anaphylactic bronchospasm; experiment: inhibition of anaphylactic bronchospasm in sensitized guinea pigs having antigen induced broncho-constriction; type: in vivo, guinea pig (male Hartley); conditions: for % Inhibition After 8 hr (peak increase in intratracheal pressure): 8 hours before ovalbumin challenge
Procedure: The anti-allergy method of this invention is identified by tests which measure a compound's inhibition of anaphylactic bronchospam in sensitized guinea pigs having antigen induced broncho-constriction.
In one such test procedure, male Hartley guinea pigs (250-300 g) are sensitized with 5 mg ovalbumin injected i.p. and 5 mg injected s.c. in 1 ml saline on day 1 and 5 mg ovalbumin injected i.p. on day 4. The sensitized animals are used 3-4 weeks later at which time they weigh 450-500 g.
The sensitized guinea pigs are fasted overnight and the following morning are anesthetized with 0.9 ml/kg i.p. of dialurethane (0.1 g/m diallybarbituric acid, 0.4 g/ml ethylurea and 0.4 g/ml urethane). The trachea are cannulated and the animals are ventilated by a Harvard rodent respirator at 50 strokes/minute with a stroke volume of 5 ml. A side arm to the tracheal cannula is connected to a Harvard pressure transducer to obtain a continuous measure of intratracheal pressure which is recorded on a Harvard polygraph. The jugular vein is cannulated for the i.v. administration of substances. The animals are challenged with antigen (0.5% ovalbumin) as an aerosol generated from a DeVilbiss Model 65 ultrasonic nebulizer and delivered through the tracheal cannula for 30 seconds. Bronchoconstriction is measured as the peak increase in intratracheal pressure occuring within 5 minutes after antigen challenge.
The sensitized guinea pigs are injected i.v. with 1 mg/kg propranolol, 5 mg/kg indomethacin and 2 mg/kg mepyramine given together in a volume of 1 ml/kg. Fifteen minutes later the animals are challenged with nebulized ovalbumin. Test compounds are administered orally 2 or 8 hours before challenge with ovalbumin. Suppression of anaphylactic bronchospasm is expressed as a percent inhibition of the peak increase in intratracheal pressure by comparison to a vehicle-treated control group.
*This measurement was made in a 21/2 day multipledosing regimen version o

paw edema = experiment: Reversed Passive Arthus Response (RPAR) Paw; type: in vivo, rat (male Lewis); conditions: oral dose of 25 mg/kg; for inhibited the paw edema at 2 hours: 2 hours post-challenge; for inhibited the paw edema at 4 hours: 4 hours post-challenge
Procedure: Reversed Passive Arthus Response (RPAR) PAW Animals, Materials and Methods
Male Lewis inbred albino rats weighing 180-200 grams obtained from Charles River Breeding Laboratories are used in these experiments. The rats are housed 3 animals/cage and food and water are allowed ad libitum. The animals are numbered 1-3 in each cage and color marked for identification purposes.
CL Drug and Reagent Preparation
All reagents and drugs are prepared just prior to the study. Crystallized and lyophilized bovine serum albumin (BSA), available from Sigma Chemical Company, is solubilized without shaking in cold, sterile, pyrogen-free saline (10 mg/ml). Lyophilized anti-bovine serum albumin (IgG fraction), obtained from Cappel Laboratories, is suspended in sterile distilled water and diluted with cold, pyrogen-free saline (PFS) just prior to use. The final concentration of anti-bovine serum albumin is 0.5 mg/ml of PFS. Both BSA and anti-BSA solutions are iced during use. Drugs are suspended or solubilized in an aqueous solution of methyl cellulose (MC) with an homogenizer just prior to administration.
Drug Administration and Induction of Inflammation
Groups of animals (6/group) are dosed with drug in MC by gavage once daily for 3 days. The last dose is administered one hour prior to sensitization with BSA. Controls are given MC alone and a drug-standard is usually included in each assay for verification purposes. Drugs are prepared and diluted so as to provide a dose for a 200 gram animal which is equivalent to the mg/kg dose for each experiment. Thus each rat receives an oral dose in a volume of approximately 2.0 cc. One hour after the last dose the animals are lightly anesthetized with ether and "sensitized" by injection of 0.2 ml of PFS containing 1.0 mg of BSA into the penile vein. One hour later, the animals are "challenged" in the right rear paw with subplantar injections of 0.2 ml of PFS containing 0.1 mg of anti-BSA. Immediately after the subplantar injection, the right paw is dipped (up to the lateral maleolus) into the mercury well of a plethysmograph. The volume of mercury displaced is converted to weight and recorded. This value is considered to be the control reading for the animal. Paw volumes are subsequently recorded with a plethysmograph during the development of the inflammation at 2 and 4 hours post-challenge.
Results are expressed by the change in paw volume (Δpaw volume) from the control reading for each animal to that recorded 2 and 4 hours post-challenge. All drug treated groups are compared to the MC control for significant differences with an analysis of variance. Differences from control in drug-treated groups are expressed as percent change from control. […]

[2] = 5 mg/kg p.o., 2 hours before ovalbumin challenge

Structure (SMILES)	% Inhibition After 2 hr (peak increase in intratracheal pressure) ([1]; 10 mg/kg p.o., 2 1/2 day multiple-dosing regimen version of the assay)	% Inhibition After 2 hr (peak increase in intratracheal pressure) [1, 2]	% Inhibition After 8 hr (peak increase in intratracheal pressure) ([1]; 5 mg/kg p.o.)	inhibited the paw edema at 2 hours (paw edema)	inhibited the paw edema at 4 hours (paw edema)
CC(=O)Oc1c(N2CCCC2)c(=O)n(-c2ccccc2)c2ncccc12 [Example 2, 4-acetyloxy-1-phenyl-3-(1-pyrrolidinyl)-1,8-naphthyridin-2(1H)-one]	87%				
Cc1ccc(C(=O)Oc2c(N3CCCC3)c(=O)n(-c3ccccc3)c3ncccc23)cc1 [Example 1, 4-(4-methylbenzoyloxy)-1-phenyl-3(1-pyrrolidinyl)-1,8-naphthyridin-2(1H)-one]		30%	0%		
CC(C)(C)C(=O)Oc1c(N2CCCC2)c(=O)n(-c2ccccc2)c2ncccc12 [Example 3, 4-(2,2-dimethylpropionyloxy)-1-phenyl-3-(1-pyrrolidinyl)-1,8-naphthyridin-2(1H)-one]		48%	49%	28%	5%
CCN(CC)C(=O)Oc1c(N2CCCC2)c(=O)n(-c2ccccc2)c2ncccc12 [Example 4, 4-(N,N-diethylcarbamoyloxy)-1-phenyl-3-(1-pyrrolidinyl)-1,8-naphthyridin-2(1H)-one]		48%	32%	54%	17%
